# Measurements published in ChEMBL document CHEMBL1152261, “2-Aminobenzimidazoles as potent ITK antagonists: trans-stilbene-like moieties targeting the kinase specificity pocket” (Bioorg Med Chem Lett, 2008).
# Legend:
# Insulin receptor = Insulin receptor (Homo sapiens, UniProt P06213); assay: Inhibition of IRK by DELPHIA
# [1] = target: T1, Tyrosine-protein kinase ITK/TSK (Homo sapiens, UniProt Q08881); assay: Inhibition of ITK by DELPHIA
# T1 sequence (Q08881 whole entry): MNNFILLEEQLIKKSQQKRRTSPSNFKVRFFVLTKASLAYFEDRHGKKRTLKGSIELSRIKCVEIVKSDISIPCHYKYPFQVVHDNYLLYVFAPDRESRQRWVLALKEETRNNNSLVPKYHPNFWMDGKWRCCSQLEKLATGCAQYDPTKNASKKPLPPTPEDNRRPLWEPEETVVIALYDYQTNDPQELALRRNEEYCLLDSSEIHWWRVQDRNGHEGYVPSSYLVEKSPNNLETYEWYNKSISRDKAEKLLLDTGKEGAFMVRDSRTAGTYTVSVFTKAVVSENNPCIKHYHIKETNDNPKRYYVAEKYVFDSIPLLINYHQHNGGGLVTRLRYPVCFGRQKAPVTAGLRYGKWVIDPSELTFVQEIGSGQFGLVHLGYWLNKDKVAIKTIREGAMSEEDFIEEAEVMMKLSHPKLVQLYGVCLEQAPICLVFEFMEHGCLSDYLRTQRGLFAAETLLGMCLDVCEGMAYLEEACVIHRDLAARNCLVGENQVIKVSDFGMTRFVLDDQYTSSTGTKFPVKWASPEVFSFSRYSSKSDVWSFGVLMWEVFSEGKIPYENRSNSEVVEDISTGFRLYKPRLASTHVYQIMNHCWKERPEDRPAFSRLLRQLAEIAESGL
# [2] = target: T1, Tyrosine-protein kinase ITK/TSK; assay: Antagonist activity at ITK expressed in chicken DT40 B cells assessed as inhibition of calcium flux; type: functional, cell-based
# T-cell = assay: Inhibition of anti-CD3/anti-CD28-stimulated IL2 production in human CD4+ T cells
# [3] = target: Tyrosine-protein kinase BTK (Homo sapiens, UniProt Q06187); assay: Inhibition of BTK
# [4] = target: T2, Tyrosine-protein kinase TXK (Homo sapiens, UniProt P42681); assay: Inhibition of TXK
# T2 sequence (P42681 whole entry): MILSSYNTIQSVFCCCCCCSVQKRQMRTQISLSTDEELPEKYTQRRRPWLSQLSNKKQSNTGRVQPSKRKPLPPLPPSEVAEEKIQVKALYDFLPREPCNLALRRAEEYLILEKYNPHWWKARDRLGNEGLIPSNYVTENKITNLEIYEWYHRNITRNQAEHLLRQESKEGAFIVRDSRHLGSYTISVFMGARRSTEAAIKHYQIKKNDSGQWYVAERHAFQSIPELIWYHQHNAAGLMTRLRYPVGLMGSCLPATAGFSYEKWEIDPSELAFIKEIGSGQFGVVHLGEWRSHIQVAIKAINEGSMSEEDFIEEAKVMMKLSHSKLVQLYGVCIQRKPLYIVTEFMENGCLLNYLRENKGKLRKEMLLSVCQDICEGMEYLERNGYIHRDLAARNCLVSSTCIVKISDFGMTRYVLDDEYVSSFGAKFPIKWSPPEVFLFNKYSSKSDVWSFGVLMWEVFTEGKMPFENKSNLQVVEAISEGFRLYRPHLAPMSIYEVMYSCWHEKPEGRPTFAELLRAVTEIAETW
# Sequence of Insulin receptor (P06213 28-758 limits assumed): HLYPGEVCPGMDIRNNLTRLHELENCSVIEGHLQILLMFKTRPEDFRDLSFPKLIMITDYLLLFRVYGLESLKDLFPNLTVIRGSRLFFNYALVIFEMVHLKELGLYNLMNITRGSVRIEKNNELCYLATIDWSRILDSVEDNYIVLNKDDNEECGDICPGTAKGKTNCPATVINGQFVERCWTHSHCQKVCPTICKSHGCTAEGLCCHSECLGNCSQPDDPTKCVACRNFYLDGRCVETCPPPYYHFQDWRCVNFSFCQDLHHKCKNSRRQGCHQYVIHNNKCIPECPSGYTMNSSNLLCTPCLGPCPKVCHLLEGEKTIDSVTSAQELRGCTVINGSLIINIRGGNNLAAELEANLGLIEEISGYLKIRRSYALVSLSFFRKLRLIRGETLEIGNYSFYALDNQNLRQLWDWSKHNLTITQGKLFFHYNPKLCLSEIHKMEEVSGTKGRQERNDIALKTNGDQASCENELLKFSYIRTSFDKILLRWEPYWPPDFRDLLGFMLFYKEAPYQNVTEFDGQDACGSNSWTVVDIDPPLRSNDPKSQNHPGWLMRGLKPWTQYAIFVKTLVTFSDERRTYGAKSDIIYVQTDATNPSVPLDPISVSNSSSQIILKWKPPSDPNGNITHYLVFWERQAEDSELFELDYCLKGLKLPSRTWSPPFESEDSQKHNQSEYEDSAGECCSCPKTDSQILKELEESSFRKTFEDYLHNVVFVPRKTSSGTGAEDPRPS
# Sequence of Insulin receptor (P06213 763-1382 limits assumed): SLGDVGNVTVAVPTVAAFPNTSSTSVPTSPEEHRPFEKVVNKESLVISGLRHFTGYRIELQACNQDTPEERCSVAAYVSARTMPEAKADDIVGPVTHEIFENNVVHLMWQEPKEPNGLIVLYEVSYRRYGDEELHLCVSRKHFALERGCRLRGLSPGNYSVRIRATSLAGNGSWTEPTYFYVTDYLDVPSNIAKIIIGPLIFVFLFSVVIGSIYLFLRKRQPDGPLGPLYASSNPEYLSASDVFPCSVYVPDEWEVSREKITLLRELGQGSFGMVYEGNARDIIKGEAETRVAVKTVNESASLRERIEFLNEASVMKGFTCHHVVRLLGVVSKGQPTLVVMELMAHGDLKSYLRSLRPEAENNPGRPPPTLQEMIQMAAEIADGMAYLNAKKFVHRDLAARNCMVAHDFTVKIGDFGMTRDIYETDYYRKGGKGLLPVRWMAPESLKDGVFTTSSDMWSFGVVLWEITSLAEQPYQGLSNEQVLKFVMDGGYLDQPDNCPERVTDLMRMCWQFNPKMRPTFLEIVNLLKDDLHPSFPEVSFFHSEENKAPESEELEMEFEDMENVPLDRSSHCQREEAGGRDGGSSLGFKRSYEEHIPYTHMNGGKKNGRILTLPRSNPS
# Sequence of Tyrosine-protein kinase BTK (Q06187 whole entry): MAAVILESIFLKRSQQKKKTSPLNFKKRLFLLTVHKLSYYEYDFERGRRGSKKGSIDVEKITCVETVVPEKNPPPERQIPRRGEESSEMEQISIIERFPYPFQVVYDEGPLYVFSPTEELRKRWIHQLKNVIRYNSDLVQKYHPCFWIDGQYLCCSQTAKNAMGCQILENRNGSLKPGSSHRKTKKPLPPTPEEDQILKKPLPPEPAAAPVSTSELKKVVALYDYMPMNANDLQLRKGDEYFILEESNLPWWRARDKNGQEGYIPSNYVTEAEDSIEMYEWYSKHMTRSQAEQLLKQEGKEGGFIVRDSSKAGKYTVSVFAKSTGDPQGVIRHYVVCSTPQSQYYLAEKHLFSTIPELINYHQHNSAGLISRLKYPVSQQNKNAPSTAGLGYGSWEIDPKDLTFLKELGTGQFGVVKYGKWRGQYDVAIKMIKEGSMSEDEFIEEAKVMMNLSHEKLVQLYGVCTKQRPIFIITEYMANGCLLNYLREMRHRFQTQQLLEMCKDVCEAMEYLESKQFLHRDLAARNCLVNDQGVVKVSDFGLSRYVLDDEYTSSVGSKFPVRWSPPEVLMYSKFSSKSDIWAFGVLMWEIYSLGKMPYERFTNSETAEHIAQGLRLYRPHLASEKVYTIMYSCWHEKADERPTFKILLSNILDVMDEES
SMILES,IC50 (Insulin receptor) [nM],further results
CN(C(=O)c1ccccc1)c1ccc2c(c1)[nH]/c(=N\C(=O)c1ccc(/C=C/c3cccc(N)c3)s1)n2CCC(N)=O,4900,
CN(C(=O)c1ccccc1)c1ccc2c(c1)[nH]/c(=N\C(=O)c1ccc(/C=C/c3cccc(N)n3)s1)n2CCC(N)=O,3800,IC50 [1]: 7 nM; IC50 [2]: 2000 nM
CN(C(=O)c1ccccc1)c1ccc2c(c1)[nH]/c(=N\C(=O)c1ccc(/C=C/c3ncc(N)cn3)s1)n2CCC(N)=O,1500,IC50 [1]: 5 nM; IC50 [2]: 410 nM; IC50 (T-cell): 1600 nM; IC50 [3]: 5 nM; IC50 [4]: 700 nM
CN(C(=O)c1ccccc1)c1ccc2c(c1)[nH]/c(=N\C(=O)c1ccc(/C=C/c3cccnc3)s1)n2CCC(N)=O,> 5000,
CN(C(=O)c1ccccc1)c1ccc2c(c1)[nH]/c(=N\C(=O)c1ccc(/C=C/c3ccccc3C(F)(F)F)s1)n2CCC(N)=O,> 5000,
C/C(=C\c1ccccc1)c1ccc(C(=O)Nc2nc3cc(N(C)C(=O)c4ccccc4)ccc3n2CCC(N)=O)s1,> 5000,
CN(C(=O)c1ccccc1)c1ccc2c(c1)[nH]/c(=N\C(=O)c1ccc(/C=C/n3ccnc3)s1)n2CCC(N)=O,> 5000,IC50 [1]: 12 nM; IC50 [2]: 2200 nM
C=Cc1ccc(C(=O)Nc2nc3cc(N(C)C(=O)c4ccccc4)ccc3n2CCC(N)=O)s1,480,
COC(=O)/C=C/c1ccc(C(=O)/N=c2\[nH]c3cc(N(C)C(=O)c4ccccc4)ccc3n2CCC(N)=O)s1,> 5000,
CN(C(=O)c1ccccc1)c1ccc2c(c1)nc(NC(=O)c1ccc(/C=C/c3ccc(N)cc3)s1)n2CCC(N)=O,3300,
CN(C(=O)c1ccccc1)c1ccc2c(c1)nc(NC(=O)c1ccc(/C=C/c3cccc(C(F)(F)F)c3)s1)n2CCC(N)=O,> 5000,
COC(=O)/C=C(\C)c1ccc(C(=O)/N=c2\[nH]c3cc(N(C)C(=O)c4ccccc4)ccc3n2CCC(N)=O)s1,3600,
C/C(=C\c1cccnc1)c1ccc(C(=O)/N=c2\[nH]c3cc(N(C)C(=O)c4ccccc4)ccc3n2CCC(N)=O)s1,> 5000,
CN(C(=O)c1ccccc1)c1ccc2c(c1)[nH]/c(=N\C(=O)c1ccc(/C=C/c3cnccn3)s1)n2CCC(N)=O,> 5000,IC50 [1]: 8 nM; IC50 [2]: 810 nM
COc1ccccc1/C=C/c1ccc(C(=O)/N=c2\[nH]c3cc(N(C)C(=O)c4ccccc4)ccc3n2CCC(N)=O)s1,> 5000,
C/C(=C\c1ccncc1)c1ccc(C(=O)/N=c2\[nH]c3cc(N(C)C(=O)c4ccccc4)ccc3n2CCC(N)=O)s1,> 5000,
CN(C(=O)c1ccccc1)c1ccc2c(c1)[nH]/c(=N\C(=O)c1ccc(/C=C/c3cn[nH]c3)s1)n2CCC(N)=O,,IC50 (T-cell): 3000 nM
CN(C(=O)c1ccccc1)c1ccc2c(c1)[nH]/c(=N\C(=O)c1ccc(/C=C/c3ccc(C(F)(F)F)cc3)s1)n2CCC(N)=O,> 5000,
CN(C(=O)c1ccccc1)c1ccc2c(c1)[nH]/c(=N\C(=O)c1ccc(/C=C/c3ccccc3)s1)n2CCC(N)=O,970,
C=C(C)c1ccc(C(=O)/N=c2\[nH]c3cc(N(C)C(=O)c4ccccc4)ccc3n2CCC(N)=O)s1,> 5000,
C/C(=C\C#N)c1ccc(C(=O)/N=c2\[nH]c3cc(N(C)C(=O)c4ccccc4)ccc3n2CCC(N)=O)s1,4500,
COc1cccc(/C=C/c2ccc(C(=O)Nc3nc4cc(N(C)C(=O)c5ccccc5)ccc4n3CCC(N)=O)s2)c1,> 5000,
CN(C(=O)c1ccccc1)c1ccc2c(c1)nc(NC(=O)c1cccs1)n2CCC(N)=O,,IC50 (T-cell): > 5000 nM
COc1ccc(/C=C/c2ccc(C(=O)/N=c3\[nH]c4cc(N(C)C(=O)c5ccccc5)ccc4n3CCC(N)=O)s2)cc1,> 5000,
CN(C(=O)c1ccccc1)c1ccc2c(c1)[nH]/c(=N\C(=O)c1ccc(/C=C/c3ccccc3N)s1)n2CCC(N)=O,1950,
CN(C(=O)c1ccccc1)c1ccc2c(c1)[nH]/c(=N\C(=O)c1ccc(/C=C/c3ccc(O)cc3)s1)n2CCC(N)=O,2200,
CN(C(=O)c1ccccc1)c1ccc2c(c1)[nH]/c(=N\C(=O)c1ccc(/C=C/c3ccncc3)s1)n2CCC(N)=O,> 5000,
CN(C(=O)c1ccccc1)c1ccc2c(c1)[nH]/c(=N\C(=O)c1ccc(/C=C/c3cccc([N+](=O)[O-])c3)s1)n2CCC(N)=O,4300,
